Holding throughout (experiment): DTP human tumour cell line panel, 48 h
The test system of test [1] is OVCAR-8.
Test [2] concerns OVCAR-5.
The test system of test [3] is SW-620.
In test [4] the test system is EKVX.
Test [5] deals with U-251.
Test [6] deals with A549.
Test [7] has as its system OVCAR-3.
For test [8], the system named is SF-295.
Test [9] has as its system UO-31.
Test [10] concerns NCI-H460.
Test [11] concerns IGROV-1.
For test [12], the system named is LOX IMVI.
In test [13] the test system is Malme-3M.
For test [14], the system named is SK-MEL-2.
Test [15] has as its system SF-268.
The subject of test [16] is CCRF-CEM.
Test [17] relates to COLO 205.
Test [18] concerns HCC 2998.
For test [19], the system named is HL-60.
Test [20] relates to UACC-62.

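The compound was tested at five concentrations on cells cultured in 96-well plates, with a 48-hour exposure period. The concentration for 50% growth inhibition is given as GI50.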 Active and inactive are the calls of the source. Cut-off read from the data, not from the text of the source: active = GI50 up to about 1.1 µM and inactive = higher. Some results are limits rather than exact numbers.

The results in this text go back to ChEMBL document CHEMBL1201862, “PubChem BioAssay data set” (2004).

In general, GI50 refers to the concentration that inhibits growth by half.

In the case of `COc1ccc(N2NC(c3ccccc3)(c3ccccc3)C(C)C2=O)cc1` (stereo not given), the GI50 in test [1] was 79.8 µM (inactive); in test [2], 56.2 µM (inactive); in [3] it was 58.9 µM (inactive); in test [4] it was 68.7 µM (inactive); in test [5], 64.3 µM (inactive); in test [6], 34.4 µM (inactive). Further, the GI50 in [7] was > 100 µM (inactive); in test [8], 36.3 µM (inactive); in test [9] it was 30.1 µM (inactive); in [10] it was 29.6 µM (inactive); in test [11], > 100 µM (inactive); in test [12], 44 µM (inactive). The GI50 is 61.7 µM (inactive) in [13]; 51.8 µM (inactive) in [14]; 88.5 µM (inactive) in test [15]; 35.6 µM (inactive) in test [16]; 16 µM (inactive) in test [17]; > 100 µM (inactive) in test [18]. Besides, the GI50 was 35.3 µM (inactive) in test [19] and 91.2 µM (inactive) in test [20].
Consider `C[n+]1cccc2c(=O)c3ccccc3oc21`, for which the GI50 in [1], in test [2], in test [3], in [4], in [5] and in test [6] was > 100 µM (inactive) in each case. The GI50 is > 100 µM (inactive) in [7]; > 100 µM (inactive) in test [8]; 69.5 µM (inactive) in test [9]; > 100 µM (inactive) in test [10]; > 100 µM (inactive) in test [11]; > 100 µM (inactive) in [12]. The GI50 in test [13], in test [14], in test [15], in [16], in [17] and in test [18] was > 100 µM (inactive) throughout. Also, the GI50 in test [19] and in test [20] was > 100 µM (inactive) throughout.
With `COC1=CC(=O)c2c(c(O)c3oc4cc(OC)cc(C)c4c(=O)c3c2O)C1=O` [BIKAVERIN], the concentration for 50% growth inhibition (GI50) in test [1] was 0.178 µM (active); in test [2] it was 1.97 µM (inactive); in test [3], 1.6 µM (inactive); in test [4], 1.01 µM (active); in test [5] it was 0.879 µM (active); in test [6], 1.6 µM (inactive). The GI50 in test [7] was 0.809 µM (active); in [8], 1.12 µM (inactive); in test [9], 1.36 µM (inactive); in [10], 1.34 µM (inactive); in test [11], 1.08 µM (active); in test [12], 0.535 µM (active). Besides, the GI50 in test [13] is 1.17 µM (inactive); in [14], 0.865 µM (active); in test [15], 4.46 µM (inactive); in test [16], 0.741 µM (active); in test [17], 20.3 µM (inactive); in [18] it was 9.91 µM (inactive). For the same molecule, the GI50 in test [19] was 0.386 µM (active); in test [20], 1.24 µM (inactive).
